Results taken from patent publication US10265294B2, “Compositions and methods for treating epithelial cancer” (YALE UNIVERSITY, priority 2016, dated 2019).
pIC50: −log10 of the molar value.

Columns and labels:
[1] = tested on: OCSC1 (chemoresistant CD44+/MyD88+ ovarian cancer stem cell clone); experiment: Real-time measurement of cell number/cell death and IC50, OCSC1 clone; type: cell-based; details: Homo sapiens; screen of 40 SBP analogs, OCSC1 clone (FIG. 1A)
Description: CD44+/MyD88+ ovarian cancer stem cell clones (OCSC1 and OCSC2) and CD44−/MyD88− ovarian cancer cells (OCC1 and OCC2) were isolated from either tumor tissue or ascites obtained from patients diagnosed with stage III/IV serous ovarian cancer and propagated (Alvero, et al., 2009, Cell Cycle 8:158-166; Chefetz, et al., 2013, Cell Cycle 12:511-521). The epithelial nature of the isolated cells was determined by immunostaining for Ck18. Purity of the cultures based on CD44 expression by flow cytometry and chemoresistance were routinely tested. […]
(§1) Effect of each compound on cell morphology, growth, and viability was assessed using a kinetic live cell imaging system (Incucyte, Essen Bioscience). Proliferation was calculated as previously described (Alvero, et al., 2011, Mol. Cancer Ther. 10:1385-1393) using metrics from either confluence or fluorescent count from nuclear-restricted RFP or GFP. Cell death was quantified; similarly CELLTOX® Green Cytotoxicity Assay (Promega, Madison, Wis.). IC50 was calculated as described using GraphPad Prism (GraphPad Software Inc., LaJolla, Calif.).
(§2) A panel of four different SBP subfamilies with cytotoxic activity against chemoresistant ovarian cancer stem cells were tested for efficacy in inducing ovarian cancer stem cell death. […] The efficacy of each analog was determined based on its IC50.

[2] = tested on: OCSC2 (chemoresistant CD44+/MyD88+ ovarian cancer stem cell clone); experiment: Real-time measurement of cell number/cell death and IC50, OCSC2 clone; type: cell-based, human
Description: (§3) CD44+/MyD88+ ovarian cancer stem cell clones (OCSC1 and OCSC2) and CD44−/MyD88− ovarian cancer cells (OCC1 and OCC2) were isolated from either tumor tissue or ascites obtained from patients diagnosed with stage III/IV serous ovarian cancer and propagated (Alvero, et al., 2009, Cell Cycle 8:158-166; Chefetz, et al., 2013, Cell Cycle 12:511-521). The epithelial nature of the isolated cells was determined by immunostaining for Ck18. Purity of the cultures based on CD44 expression by flow cytometry and chemoresistance were routinely tested. Stable expression of nuclear-restricted red fluorescent (in OCSCs) or green fluorescent proteins (in OCCs) was performed by transduction using NUCLIGHT® Red or Green Lentivirus Reagent (Essen Bioscience, Ann Arbor, Mich.). Spheroids were formed from OCSCs by culturing in ultra-low attachment multi-well plates (Corning, Inc., Corning, N.Y.).
as §1, §2
TRX-E-002 exists as a racemic mixture comprised of two enantiomers, enantiomer A (TRX-E-002-1) and enantiomer B (TRX-E-002-2). Thus, the enantiomers were separated and assessed separately. […]

[3] = tested on: OCSCs (CD44+/MyD88+ ovarian cancer stem cells); experiment: OCSC growth, morphology, RFP+ cell count and Celltox cell death (kinetic live cell imaging); type: cell-based, human
Description: as §3, §1
In vitro, conventional chemotherapeutic drugs had negligible effect on OCSC growth even in the μM range (FIG. 1B).
TRX-E-002 exists as a racemic mixture comprised of two enantiomers, enantiomer A (TRX-E-002-1) and enantiomer B (TRX-E-002-2). Thus, the enantiomers were separated and assessed separately. To distinguish between an analog's cytostatic or cytotoxic activity, OCSC clones that are stably transfected with nuclear-restricted RFP were used, which allows an accurate quantification of the number of cells and can be multiplexed with CELLTOX® assay to concomitantly measure the number of dead cells.

[4] = tested on: chemoresistant ovarian cancer stem cells; experiment: OCSC growth and morphology with TRX-E-002-1, AICAR or the combination; type: cell-based, human
Description: The effect of each compound on cell growth was assessed using a kinetic live cell imagine system (Incucyte, Essen Bioscience). Proliferation was determined based on either confluence or fluorescent count from nuclear-restricted RFP or GFP. The IC50 values were calculated using GraphPad Prism (GraphPad Software Inc., LaJolla, Calif.). […]

[5] = tested on: co-culture of RFP-labeled OCSC2 and GFP-labeled OCC2; experiment: In vitro co-culture model 50% RFP-OCSC2 / 50% GFP-OCC2; type: cell-based; details: co-culture 50/50; TRX-E-002-1 0.12 μM, Cisplatin 20 μM
Description: as §3, §1
Without wishing to be limited by any theory, response to chemotherapy may be modified by cross-talk among different cancer cell types within the tumor. Thus, to mimic the heterogeneity of ovarian tumors an in vitro co-culture model consisting of RFP-labeled chemoresistant OCSC2 and GFP-labeled chemosensitive OCC2 was used. The co-cultures, which are comprised of 50% RFP-OCSC2 and 50% GFP-OCC2 at time of treatment, were exposed to TRX-E-002-1, cisplatin, or the combination of both. Since GFP-OCC2 has faster doubling time than RFP-OCSC2, it overtook the control co-cultures by the end of the experiment and thus the control co-cultures are mainly comprised of GFP-OCC2 by the 24 h time-point (FIG. 2B).

[6] = tested on: i.p. tumors of mCherry+OCSC1-F2 ovarian cancer cells; experiment: Recurrent disease xenograft, maintenance treatment after Paclitaxel; type: in vivo
Excerpt: The Yale University Institutional Animal Care and Use Committee approved all in vivo studies described. Intra-peritoneal tumors were established in athymic nude mice using 4×10^6 mCherry+OCSC1-F2 ovarian cancer cells (Craveiro, et al., 2013, Cancer Med. 2:751-762). Injection of cancer cells is designated as day 0 and treatment commenced between day 3-5. Establishment of i.p. tumors was confirmed by live imaging (In-Vivo FX PRO, Bruker Corp., Billerica, Mass.) prior to treatment. TRX-E-002-1 was prepared in 20% Captisol or Dexsolve and administered daily at 50 mg/kg or 100 mg/kg. Paclitaxel was given at 12 mg/kg q3d and Cisplatin at 5 mg/kg weekly. All treatments were given i.p. Tumor growth was monitored q3d by live imaging and response to treatment was assessed using ROI area.
Although the standard of care for ovarian cancer patients (platinum plus taxane) is effective initially, most patients develop recurrent disease. Recurrence is the major cause of mortality in ovarian cancer patients, and thus approaches that can prevent recurrence are critical to improve patient survival. As described elsewhere herein, a unique advantage of the xenograft model is the recapitulation of recurrent disease that is typically observed in patients with ovarian cancer. […] Upon recurrence, tumors acquire resistance and become unresponsive to a second-round of Paclitaxel regimen, as observed in ovarian cancer patients. Thus, the model allows one to assess the value of novel compounds in preventing recurrence when given as maintenance treatment.
Thus mice were given Paclitaxel as initial treatment. […] After the 4th dose of Paclitaxel mice were re-randomized into the different maintenance groups. Here the maintenance protocol consisted of continued treatment with Paclitaxel, or maintenance with TRX-E-002-1 (100 mg/kg), or maintenance with Vehicle control.

ERK = experiment: Phosphokinase array / Western blot for phosphorylated ERK in OCSCs; type: cell-based, human; details: U0126 10 μM, 2 hours; comparable to levels induced by TRX-E-002-1
Description: SDS-PAGE and Western blots were performed using 20 μg of total protein lysate as described in Kamsteeg, et al., 2003, Oncogene 22:2611-2620. Antibodies used were: mouse anti-phospho ERK (Santa Cruz Biotechnology, Inc., Dallas, Tex.); rabbit anti-phospho c-Jun, rabbit anti c-Jun, rabbit anti-ERK, rabbit anti-cleaved caspase 3 all from Cell Signaling Technology, Danvers, Mass.; and mouse anti-GAPDH (Sigma-Aldrich).
In order to elucidate the early pathways responsible for the sustained cytotoxic effect observed with TRX-E-002-1, a phosphokinase array was performed. The phosphokinase array detected relative phosphorylation levels of 43 different kinases involved in major signal transduction pathways.
The western blot results also validated the decrease in p-ERK in cells treated with TRX-E-002-1. […] The effect on the phosphorylation status of the kinases (upregulation of p-cJun and downregulation of p-ERK) was observed as early as 2 h post-treatment and maintained up to 24 h (FIG. 4A). The phosphorylation levels of c-Jun and ERK correlate with the differential ability of the two doses of TRX-E-002-1 to induce a sustained cytotoxic effect. […] This correlates with the ability of this dose of TRX-E-002-1 to maintain the upregulation of p-cJun and downregulation of p-ERK even when the compound is removed (FIG. 4B). […]

OCSCs = experiment: Cell death of OCSCs with JNK or ERK pathway inhibitor; type: cell-based, human; details: U0126 10 μM, 24 hour time-point
Description: as §1
Jun N-terminal kinase (JNK) is a stress-activated protein kinase and the main kinase that phosphorylates c-Jun. To determine whether the JNK/Jun pathway is involved in TRX-E-002-1-induced cell death, the JNK inhibitor SP600125 (1,9-Pyrazoloanthrone; a reversible ATP competitive inhibitor selective for JNK 1, 2, and 3) was used. Cells were treated with TRX-E-002-1 in the presence or absence of SP600125.
To determine the importance of downregulating the levels of p-ERK, cells were treated with U0126 (1,4-diamino-2,3-dicyano-1,4-bis(2-aminophenylthio)butadiene) to recapitulate the effect of TRX-E-002-1 on the ERK pathway.

COc1cc(C2COc3c(ccc(O)c3C)C2c2ccc(O)cc2)cc(OC)c1O (racemic) [TRX-E-002, 3-(4-hydroxy-3,5-dimethoxyphenyl)-4-(4-hydroxyphenyl)-8-methylchroman-7-ol]
pIC50 [1]: > 6.61 | pIC50 ([2]; Homo sapiens, screen of 40 SBP analogs, OCSC2 clone (FIG. 1A)): > 6.61 | apoptotic cells by microscopic evaluation of the cultures ([3]; 24 hours, compared with Cisplatin or Paclitaxel treated cultures): higher percentage of apoptotic cells | effect on OCSC growth ([3]; chemotherapeutic drugs even in the μM range, TRX-E-002 at low concentrations): persistent growth inhibitory effect

NC(=O)c1ncn([C@@H]2O[C@H](CO)[C@@H](O)[C@H]2O)c1N [AICAR, 5-aminoimidazole-4-carboxamide-1-β-D-ribofuranoside, reference compound]
cell morphology / apoptotic cells ([4]; 48 hours, AICAR at 0.2 mM): no effect | effect on cell growth ([4]; TRX-E-002-1 25 ng/ml, mono therapies or combination): minimal effect

N.N.[Cl][Pt][Cl] [Cisplatin, reference compound]
number of GFP+ cells (GFP-OCC2) [5]: decrease | number of mCherry+ cells (RFP-OCSC2) [5]: no effect

COc1cc(C2COc3c(ccc(O)c3C)C2c2ccc(O)cc2)cc(OC)c1O (single isomer, unassigned) [TRX-E-002-2]
pIC50 ([2]; OCSC2, 24 hours (FIG. 1G)): 5.00 | number of nuclear RFP+ cells ([3]; RFP OCSC clones, TRX-E-002-1 beginning at the 0.245 μM dose, TRX-E-002-2 except for the very high dose of 10 μM): mostly ineffective

CC(=O)O[C@H]1C(=O)[C@@]2(C)[C@H]([C@H](OC(=O)c3ccccc3)[C@]3(O)C[C@H](OC(=O)[C@H](O)[C@@H](NC(=O)c4ccccc4)c4ccccc4)C(C)=C1C3(C)C)[C@]1(OC(C)=O)CO[C@@H]1C[C@@H]2O [Paclitaxel, reference compound]
tumor progression during initial treatment ([6]; Paclitaxel 4 doses at 12 mg/kg i.p.): significant delay in tumor progression | tumor progression during maintenance treatment ([6]; after 4th dose of Paclitaxel, TRX-E-002-1 100 mg/kg daily i.p. or continued Paclitaxel): tumor progression was observed | gross examination of residual disease ([6]; maintenance groups): visible carcinomatosis and extensive metastasis | tumor weights at end point compared to control ([6]; maintenance groups): not

N#CC(=C(N)Sc1ccccc1N)C(C#N)=C(N)Sc1ccccc1N [U0126, 1,4-diamino-2,3-dicyano-1,4-bis(2-aminophenylthio)butadiene, reference compound]
levels of p-ERK (ERK): downregulated | effect on cell death relative to TRX-E-002-1 (OCSCs): not comparable
